Paper PMC6149971, “In Vivo and In Vitro Activities and ADME-Tox Profile of a Quinolizidine-Modified 4-Aminoquinoline: A Potent Anti-P. falciparum and Anti-P. vivax Blood-Stage Antimalarial” (Molecules : A Journal of Synthetic Chemistry and Natural …, 2017)

What was measured:
[1] = Microsome stability and metabolism studies, mouse; assay type: in vitro ADME; design: key: +: Metabolic Products Detected In Vitro and In Vivo; ND: Not detectable; conditions: (−)-AM1 1 μM, at 30 min
Experimental: (§1) Samples from the metabolic stability and metabolism studies were analyzed under the following conditions: UPLC interfaced with a Premiere XE triple Quadrupole Waters for stability studies, and Bruker Daltonics Ion Trap HCT Ultra for metabolic studies. A gradient from 2% to 100% (Water, MeOH, 5 mM Ammonium Acetate) over 2 min (stability) or 12 min (metabolism) in a C18 BEH (dimensions 1 by 50 mm for stability and 2.1 by 100 mm for metabolism, 1.7 µm column, 45 °C temperature, flow rate 0.5 mL/min) was used. For stability studies, the detection was performed in MRM (ESI positive, Q1/Q3 330.16/152.00, Cone Voltage 45 V; Extractor 5 V; Capillary 3.4 kV), while for metabolism studies, analysis was performed in Auto MS/MS mode (ESI positive; Capillary 109 V; Dry Temp 350 °C; Nebulizer 30 psi; Dry gas 10 L/min; HV capillary 500 V; Mass Accu time 500 µs; Mass range MS scan 100–600 amu, MS/MS 50–450 amu).
(§2) For stability and metabolism studies, test compounds were dissolved in DMSO, diluted at the final concentration of 1 µM, and pre-incubated in duplicate for 10 min at 37 °C in potassium phosphate buffer, pH 7.4, 3 mM MgCl2, with rat, mouse, and human hepatic microsomes (Xenotech Europe, Pfungstadt, Germany) at the final concentration of 0.5 mg/mL. The reaction was then started by adding the cofactor mixture of NADP, Glc6P, and G6P-DH, in the presence of UDPGA 1 mM in human microsomes to promote glucuronide formation. Acetonitrile (with verapamil as internal standard) was added to the samples at the times time 0 and 30 min to stop the reaction. Samples were then centrifuged and the supernatants analysed and quantified by LC-MS/MS. Reference compounds of known metabolic stability, 7-ethoxycoumarin (7-EC) and propranolol, were used as controls.
(§3) The percentage of the area of test compounds remaining after 30 min incubation was calculated in respect to the area of compounds at time = 0 min. […] Samples were re-analyzed by acquiring the daughter scan of the potential metabolites found during the full scan acquisition.

[2] = Microsome stability and metabolism studies, rat; assay type: in vitro ADME; design: key: +: Metabolic Products Detected In Vitro and In Vivo; ND: Not detectable; conditions: (−)-AM1 1 μM, at 30 min
Experimental: as §1, §2, §3

P. falciparum D10 (CQ-S) = assay: Combination with dihydroartemisinin (isobologram), D10; assay type: cell-based; conditions: additive activity
Experimental: Figure 2 Isobologram analysis of the antimalarial activity of (−)-AM1 in combination with dihydroartemisinin (DHA) against D10 chloroquine-sensitive (CQ-S) (A) or W2 chloroquine-resistant (CQ-R) (B) P. falciparum strains. […]. DHA fractional IC50 values were calculated by dividing the IC50 of DHA combined with (−)-AM1 or CQ, respectively, by the IC50 of DHA alone, and plotted on the horizontal axis. The corresponding fractional (−)-AM1 or CQ IC50 values were calculated by dividing each fixed concentration by the IC50 of the (−)-AM1 or CQ alone, and plotted on the vertical axis. An isobologram close to the diagonal indicates an additive effect.
The antimalarial activity of (−)-AM1 was assayed in combination with dihydroartemisinin (DHA) against W-2 (CQ-R) or D10 (CQ-S) strains of P. falciparum by potentiation tests as previously described. CQ was used as a control. Isobolograms were constructed by plotting a pair of fractional IC50 values for each combination of (−)-AM1 or CQ with DHA [40].
An isobologram close to the diagonal indicates an additive effect.

[3] = tested on: P. falciparum TM91C235 (multidrug-resistant); assay: In vitro chemosensitivity assay (pLDH), TM91C235 strain; assay type: cell-based; conditions: Plasmodium falciparum; 72 h incubation, pLDH method, mean of 3 experiments; read-out: P. falciparum IC50, TM91C235
CYP1A2 = biological target: T1, CYP1A2 (Homo sapiens, UniProt P05177); assay: in vitro
T1 sequence (P05177 1-516): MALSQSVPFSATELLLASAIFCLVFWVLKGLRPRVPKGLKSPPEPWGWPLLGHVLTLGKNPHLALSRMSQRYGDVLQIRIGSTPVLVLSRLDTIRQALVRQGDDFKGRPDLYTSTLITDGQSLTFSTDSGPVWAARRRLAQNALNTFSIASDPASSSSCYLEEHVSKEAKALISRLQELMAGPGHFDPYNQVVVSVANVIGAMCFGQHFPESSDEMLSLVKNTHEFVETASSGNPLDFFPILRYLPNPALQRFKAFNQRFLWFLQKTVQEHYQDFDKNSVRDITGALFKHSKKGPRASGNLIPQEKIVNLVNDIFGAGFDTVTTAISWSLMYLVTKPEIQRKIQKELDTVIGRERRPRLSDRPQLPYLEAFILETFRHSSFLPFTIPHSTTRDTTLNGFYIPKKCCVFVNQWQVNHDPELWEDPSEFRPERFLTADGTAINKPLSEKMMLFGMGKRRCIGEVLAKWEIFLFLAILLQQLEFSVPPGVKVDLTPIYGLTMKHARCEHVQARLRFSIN

Clc1ccc2c(NC[C@@H]3CCCN4CCCC[C@H]34)ccnc2c1 [(−)-AM1, 7-chloro-N-(((1S,9aR)-octahydro-1H-quinolizin-1-yl)methyl)quinolin-4-amine]
Metabolic products detected, in vitro microsomes, mouse [1]: + | Metabolic products detected, in vitro microsomes, rat [2]: + | FIC in combination with DHA (P. falciparum D10 (CQ-S)): < 2 | IC50 [3]: 16.7 nM | inhibition at 3 µM (CYP1A2): < 5%
